SMILES strings stand for the structures.

The subject of this series is liver. The settings on record: feeding for 10 days (FIG. 8). An excerpt: Two-photon microscopy was used to observe living organism. […] The multiphoton microscope is illustrated in FIG. 5. […] The SHG signal was collected in the backscattering geometry.
When the liver was damaged, the function of hepatocytes would also be damaged. In the present invention, CCl4 was applied to simulate the reaction of hepatocyte when the liver was toxic.

`ClC(Cl)(Cl)Cl` [CCl4]: the “liver state after feeding CCl4” value was “fibrosis”.

For the origin of these results see US20120035444A1, “INTRAVITAL SAMPLE DEVICE FOR IN VIVO DRUG SCREENING” (NATIONAL TAIWAN UNIVERSITY, priority 2008, published 2012).
